In patent publication US20220220128A1, “HETEROCYCLIC COMPOUNDS AS KINASE INHIBITORS, COMPOSITIONS COMPRISING THE HETEROCYCLIC COMPOUND, AND METHODS OF USE THEREOF” (JS Innopharm (Shanghai) Ltd, priority 2019, published 2022) one finds GI50 and IC50 data, which are given here for 16 compounds.

Each structure is given as a SMILES string. A value given as a limit tells only on which side of the number the result lay.

One assay has as its target T1, BAF3-KIF5B-RET cells (Homo sapiens, UniProt P07949).
T1 construct: fused on or other part: P33176 (Kinesin-1 heavy chain)
Put plainly: BAF3-KIF5B-RET Cell proliferation assay (CellTiter-Glo, 72 hours). In kind it is cell-based. As to conditions: growth inhibition, read-out: BA/F3-KIF5B-RET Cellular activity. Here is the method:
Compounds disclosed herein were tested for the inhibition of RET by a cancer cell proliferation assay commonly known as CellTiter-Glo assay. In this assay, a complete media was prepared by adding 10% fetal bovine serum to RPMI-1640 medium (Life technology) for BAF3-FIF5B-RET cells. BAF3-KIF5B-RET cells were added to each of 88 wells of a 96 well plate at a seeding density of 2,000 cells/well/95 μL. The cells were allowed to attach to the plate by incubating at 37° C. for 24 hours. The compound was dissolved in DMSO (SIGMA). A solution of test compound was prepared in complete media by serial dilution to obtain the following concentrations: 20 μM, 6.67 μM, 2.22 μM, 0.74 μM, 0.25 μM, 0.082 μM, 0.027 μM, 0.0091 μM and 0.0030 μM. The test compound solution (5 μL) was added to each of 80 cell-containing wells. The final concentrations of the compound were following: 1 μM, 0.33 μM, 0.11 μM, 0.037 μM, 0.012 μM, 0.0041 μM, 0.0014 μM, 0.00046 μM and 0.00015 μM. The final concentration of DMSO is 0.1%. To the 8 remaining cell-containing wells, only complete media (containing 0.1% DMSO) was added to form a control group in order to measure maximal proliferation. To the remaining 8 empty wells, complete media was added to for a vehicle control group in order to measure background. The plates were incubated at 37° C. for 72 hours. 50 μl of CellTiter-Glo® Reagent was added to each well. Mix contents for 2 minutes on an orbital shaker to induce cell lysis. Incubate at room temperature for 10 minutes to stabilize luminescent signal. Record luminescence on Paradigm. Cell viability (CV %) was calculated relative to vehicle (DMSO) treated control wells. The IC50 was calculated using GraphPad Prism.
For orientation: In ATP-based viability assays light output follows the ATP content of the culture.

The next assay deals with T2, human RET kinase (Homo sapiens, UniProt P07949).
T2 construct: purchased Carna 08-159
T2 sequence (P07949 29-1114): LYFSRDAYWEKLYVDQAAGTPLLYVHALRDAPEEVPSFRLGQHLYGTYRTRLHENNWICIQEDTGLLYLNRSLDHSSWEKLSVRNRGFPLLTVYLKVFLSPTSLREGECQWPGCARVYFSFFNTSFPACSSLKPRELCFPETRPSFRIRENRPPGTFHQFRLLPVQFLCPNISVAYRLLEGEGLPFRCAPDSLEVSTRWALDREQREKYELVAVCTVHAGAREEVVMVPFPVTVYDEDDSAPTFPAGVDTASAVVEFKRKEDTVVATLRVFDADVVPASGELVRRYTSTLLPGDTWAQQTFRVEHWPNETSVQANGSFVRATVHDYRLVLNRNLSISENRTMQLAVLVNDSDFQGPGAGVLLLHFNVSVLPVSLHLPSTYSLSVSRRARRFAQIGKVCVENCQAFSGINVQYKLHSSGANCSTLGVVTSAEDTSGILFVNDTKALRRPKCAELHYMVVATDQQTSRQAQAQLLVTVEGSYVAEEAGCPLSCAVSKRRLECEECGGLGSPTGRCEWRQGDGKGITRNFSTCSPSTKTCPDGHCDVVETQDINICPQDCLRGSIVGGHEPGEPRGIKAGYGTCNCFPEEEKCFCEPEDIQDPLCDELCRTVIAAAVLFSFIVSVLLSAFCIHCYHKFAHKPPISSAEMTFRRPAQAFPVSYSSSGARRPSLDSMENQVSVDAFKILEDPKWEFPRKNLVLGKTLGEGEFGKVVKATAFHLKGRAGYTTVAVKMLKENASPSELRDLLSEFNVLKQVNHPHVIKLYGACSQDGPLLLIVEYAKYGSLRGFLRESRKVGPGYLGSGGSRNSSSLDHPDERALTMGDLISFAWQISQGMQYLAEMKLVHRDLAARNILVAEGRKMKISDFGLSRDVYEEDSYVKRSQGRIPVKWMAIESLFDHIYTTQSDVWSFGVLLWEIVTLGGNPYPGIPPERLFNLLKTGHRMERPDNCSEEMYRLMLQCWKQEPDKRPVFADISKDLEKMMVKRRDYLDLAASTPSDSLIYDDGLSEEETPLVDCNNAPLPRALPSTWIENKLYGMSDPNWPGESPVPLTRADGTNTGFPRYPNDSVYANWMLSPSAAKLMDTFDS
Put plainly: RET Kinase Assay (LanthaScreen TR-FRET enzymatic assay). In kind it is biochemical. Particulars: 7 nM RET, 23 μM ATP. In short, it runs like this:
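Human RET (7 nM) preincubated 15 min with compound in 50 mM HEPES pH 7.5, 0.0015% Brij-35, then reacted with 3 μM FAM-P2 peptide and 23 μM ATP for 1 h at 28° C.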

The next assay addresses T3, human KDR kinase (Homo sapiens, UniProt P35968).
T3 construct: purchased Carna 08-191
Put plainly: KDR Kinase Assay (LanthaScreen TR-FRET enzymatic assay). Particulars: 1.2 nM KDR, 92 μM ATP. It counts as biochemical. The method in brief: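 Recombinant human KDR (1.2 nM) preincubated 15 min at room temperature with compound, then reacted with 3 μM FAM-P22 peptide and 92 μM ATP in 50 mM HEPES pH 7.5 for 1 h at 28° C. EDTA stop, then TR-FRET acceptor/donor ratio read; percent of 1% DMSO control fitted sigmoidally for IC50.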

Another assay deals with TT cells. Kind of assay: TT Cell Proliferation Assay (WST-8, 8 days). It counts as cell-based. Particulars: Homo sapiens, TT, 192 h, growth inhibition in TT cells, read-out: TT Cellular Activity. The method in brief:
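TT cells, 6,000/well in RPMI-1640 with 10% FBS, attached 24 h, then exposed to compound at 5 μM down to 0.0005 μM final (0.5% DMSO) for 8 days at 37 °C. WST-8 added for 5 h, absorbance at 450 nm. IC50 calculated from the dilution series.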
Background: Tetrazolium dyes change colour on reduction, which living cells bring about.

T3 sequence (P35968 20-1356): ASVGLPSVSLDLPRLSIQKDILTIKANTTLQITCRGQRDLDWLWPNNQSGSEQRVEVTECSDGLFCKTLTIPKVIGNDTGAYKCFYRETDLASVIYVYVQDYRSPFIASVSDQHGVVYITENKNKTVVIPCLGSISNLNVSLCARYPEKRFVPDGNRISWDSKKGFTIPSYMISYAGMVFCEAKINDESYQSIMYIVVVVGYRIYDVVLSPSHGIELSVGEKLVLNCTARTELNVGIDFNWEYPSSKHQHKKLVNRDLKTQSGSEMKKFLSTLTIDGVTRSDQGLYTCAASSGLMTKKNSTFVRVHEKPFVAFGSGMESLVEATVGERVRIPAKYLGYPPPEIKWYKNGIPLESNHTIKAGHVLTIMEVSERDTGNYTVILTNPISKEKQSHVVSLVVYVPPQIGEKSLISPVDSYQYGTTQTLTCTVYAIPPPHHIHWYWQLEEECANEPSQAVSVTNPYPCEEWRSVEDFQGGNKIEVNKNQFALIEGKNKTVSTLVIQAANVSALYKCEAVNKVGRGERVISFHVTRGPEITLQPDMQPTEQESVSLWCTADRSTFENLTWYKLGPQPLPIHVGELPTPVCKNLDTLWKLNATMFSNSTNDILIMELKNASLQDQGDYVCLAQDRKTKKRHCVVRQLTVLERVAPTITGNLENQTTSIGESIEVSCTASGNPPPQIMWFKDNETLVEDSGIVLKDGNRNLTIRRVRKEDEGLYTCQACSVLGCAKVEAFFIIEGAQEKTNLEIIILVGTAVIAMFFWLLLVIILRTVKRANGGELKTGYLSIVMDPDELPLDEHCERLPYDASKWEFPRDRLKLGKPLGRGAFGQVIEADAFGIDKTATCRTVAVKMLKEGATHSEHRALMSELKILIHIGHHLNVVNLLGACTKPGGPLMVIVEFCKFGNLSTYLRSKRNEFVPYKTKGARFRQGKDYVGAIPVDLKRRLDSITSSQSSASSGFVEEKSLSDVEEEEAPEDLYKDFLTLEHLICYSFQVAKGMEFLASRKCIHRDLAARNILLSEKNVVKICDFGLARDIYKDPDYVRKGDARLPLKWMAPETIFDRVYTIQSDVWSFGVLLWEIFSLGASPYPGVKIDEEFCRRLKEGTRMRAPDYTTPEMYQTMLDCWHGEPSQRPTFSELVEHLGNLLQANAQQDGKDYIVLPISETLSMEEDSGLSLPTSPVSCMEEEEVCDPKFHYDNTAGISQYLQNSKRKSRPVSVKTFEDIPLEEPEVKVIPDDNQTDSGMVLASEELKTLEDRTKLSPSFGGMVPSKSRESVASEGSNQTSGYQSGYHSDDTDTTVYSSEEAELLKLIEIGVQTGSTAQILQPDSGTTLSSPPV
T1 sequence (P07949 whole entry, change not shown, the tested form may be a part): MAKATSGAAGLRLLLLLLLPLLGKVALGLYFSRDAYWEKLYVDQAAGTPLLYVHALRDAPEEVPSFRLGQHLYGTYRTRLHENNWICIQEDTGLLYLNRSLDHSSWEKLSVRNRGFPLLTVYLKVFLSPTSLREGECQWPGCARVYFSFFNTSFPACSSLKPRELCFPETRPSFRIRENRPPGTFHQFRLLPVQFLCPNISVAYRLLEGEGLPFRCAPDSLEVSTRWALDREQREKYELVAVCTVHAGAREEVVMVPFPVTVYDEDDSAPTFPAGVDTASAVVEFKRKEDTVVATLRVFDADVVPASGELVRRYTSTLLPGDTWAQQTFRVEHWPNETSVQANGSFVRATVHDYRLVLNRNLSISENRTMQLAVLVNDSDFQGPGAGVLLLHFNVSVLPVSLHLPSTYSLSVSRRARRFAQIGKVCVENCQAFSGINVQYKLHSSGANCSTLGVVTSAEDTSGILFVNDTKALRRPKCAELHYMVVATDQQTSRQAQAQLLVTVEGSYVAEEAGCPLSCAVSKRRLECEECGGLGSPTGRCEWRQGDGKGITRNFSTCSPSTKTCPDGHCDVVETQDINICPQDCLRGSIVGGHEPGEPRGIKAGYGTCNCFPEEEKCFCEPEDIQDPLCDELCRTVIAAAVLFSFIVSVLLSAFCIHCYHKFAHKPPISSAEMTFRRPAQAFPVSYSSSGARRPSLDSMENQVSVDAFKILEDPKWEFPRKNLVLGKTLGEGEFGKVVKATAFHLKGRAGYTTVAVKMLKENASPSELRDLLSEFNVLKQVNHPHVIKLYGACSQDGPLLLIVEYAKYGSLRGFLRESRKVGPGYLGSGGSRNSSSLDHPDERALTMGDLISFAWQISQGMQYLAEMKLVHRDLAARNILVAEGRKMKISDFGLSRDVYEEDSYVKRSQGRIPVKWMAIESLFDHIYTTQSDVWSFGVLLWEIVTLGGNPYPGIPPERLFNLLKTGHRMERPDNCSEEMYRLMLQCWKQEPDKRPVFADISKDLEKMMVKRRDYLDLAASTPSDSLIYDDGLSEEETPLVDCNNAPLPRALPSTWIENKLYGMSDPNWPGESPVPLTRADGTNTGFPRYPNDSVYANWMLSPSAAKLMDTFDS

With `Cn1cc(-c2cc(-c3cnc(N4C5CC6CC4CC(O)(C6)C5)cn3)c3c(C#N)cnn3c2)cn1` [Example 104, 4-(5-((1R,3S,5s,7s)-5-hydroxy-2-azaadamantan-2-yl)pyrazin-2-yl)-6-(1-methyl-1H-pyrazol-4-yl)pyrazolo[1,5-a]pyridine-3-carbonitrile], the GI50 on BAF3-KIF5B-RET cells was in the range of 10 to 50 nM. The same compound had an IC50 against human RET kinase of at most 10 nM.
With `Cn1ccc(-c2cc(-c3ccc(N4C[C@@H]5C[C@@](O)(Cc6ccccn6)C[C@@H]5C4)nc3)c3c(C#N)cnn3c2)n1` [Example 105, 4-(6-((3aR,5r,6aS)-5-hydroxy-5-(pyridin-2-ylmethyl)hexahydrocyclopenta[c]pyrrol-2(1H)-yl)pyridin-3-yl)-6-(1-methyl-1H-pyrazol-3-yl)pyrazolo[1,5-a]pyridine-3-carbonitrile], the GI50 at BAF3-KIF5B-RET cells lay within 10 to 50 nM. On human RET kinase, the IC50 was at most 10 nM.
For `CC(C)(O)COc1cc(-c2ccc(N3C[C@H]4C[C@@H](NC(=O)c5ncccc5Cl)C[C@H]4C3)nc2)c2c(C#N)cnn2c1` [Example 106, 3-chloro-N-((3aR,5r,6aS)-2-(5-(3-cyano-6-(2-hydroxy-2-methylpropoxy)pyrazolo[1,5-a]pyridin-4-yl)pyridin-2-yl)octahydrocyclopenta[c]pyrrol-5-yl)picolinamide] the same measures were at most 10 nM and at most 10 nM.
The corresponding values for `Cn1cc(-c2cc(-c3cnc(N4C5CC6CC4CC(NC=O)(C6)C5)cn3)c3c(C#N)cnn3c2)cn1` [Example 107, N-((1R,3S,5s,7s)-2-(5-(3-cyano-6-(1-methyl-1H-pyrazol-4-yl)pyrazolo[1,5-a]pyridin-4-yl)pyrazin-2-yl)-2-azaadamantan-5-yl)formamide] are 10 to 50 nM and at most 10 nM.
The corresponding values for `Cn1cc(-c2cc(-c3cnc(N4C5CC6CC4CC(N)(C6)C5)cn3)c3c(C#N)cnn3c2)cn1` [Example 108, 4-(5-((1R,3S,5s,7s)-5-amino-2-azaadamantan-2-yl)pyrazin-2-yl)-6-(1-methyl-1H-pyrazol-4-yl)pyrazolo[1,5-a]pyridine-3-carbonitrile] are 10 to 50 nM and at most 10 nM.
Consider `Cn1cc(-c2cc(-c3cnc(N4C5CC6CC4CC(NC(=O)OC(C)(C)C)(C6)C5)cn3)c3c(C#N)cnn3c2)cn1` [Example 109, tert-butyl ((1R,3S,5s,7s)-2-(5-(3-cyano-6-(1-methyl-1H-pyrazol-4-yl)pyrazolo[1,5-a]pyridin-4-yl)pyrazin-2-yl)-2-azaadamantan-5-yl)carbamate], for which the GI50 on BAF3-KIF5B-RET cells was at most 10 nM. On human RET kinase, this compound registered an IC50 of at most 10 nM.
As for `Cn1cc(-c2cc(-c3cnc(N4C[C@@H]5C[C@@](C)(NC(=O)c6ncccc6F)C[C@@H]5C4)cn3)c3c(C#N)cnn3c2)cn1` [Example 142, N-((3aR,5s,6aS)-2-(5-(3-cyano-6-(1-methyl-1H-pyrazol-4-yl)pyrazolo[1,5-a]pyridin-4-yl)pyrazin-2-yl)-5-methyloctahydrocyclopenta[c]pyrrol-5-yl)-3-fluoropicolinamide], the IC50 is 10 to 50 nM on human KDR kinase, at most 10 nM in the assay with TT cells and at most 10 nM against human RET kinase.
Take `Cn1ccc(-c2cc(-c3ccc(N4C[C@@H]5C[C@@](C)(NS(=O)(=O)c6c(F)cccc6Cl)C[C@@H]5C4)nc3)c3c(C#N)cnn3c2)n1` [Example 178, 2-chloro-N-((3aR,5s,6aS)-2-(5-(3-cyano-6-(1-methyl-1H-pyrazol-3-yl)pyrazolo[1,5-a]pyridin-4-yl)pyridin-2-yl)-5-methyloctahydrocyclopenta[c]pyrrol-5-yl)-6-fluorobenzenesulfonamide]: the IC50 is 10 to 50 nM at human KDR kinase, at most 10 nM with TT cells and at most 10 nM on human RET kinase.
With `Cn1ccc(-c2cc(-c3ccc(N4C[C@@H]5CN(S(=O)(=O)c6c(F)cccc6Cl)C[C@@H]5C4)nc3)c3c(C#N)cnn3c2)n1` [Example 179, 4-(6-((3aR,6aS)-5-((2-chloro-6-fluorophenyl)sulfonyl)hexahydropyrrolo[3,4-c]pyrrol-2(1H)-yl)pyridin-3-yl)-6-(1-methyl-1H-pyrazol-3-yl)pyrazolo[1,5-a]pyridine-3-carbonitrile], the results for the IC50 against human KDR kinase, in the assay with TT cells and against human RET kinase were 10 to 50 nM, at most 10 nM and 10 to 50 nM, respectively.
As for `Cn1cc(-c2cc(-c3cnc(N4C[C@@H]5CN(S(=O)(=O)c6c(F)cccc6Cl)C[C@@H]5C4)cn3)c3c(C#N)cnn3c2)cn1` [Example 182, 4-(5-((3aR,6aS)-5-((2-chloro-6-fluorophenyl)sulfonyl)hexahdropyrrolo[3,4-c]pyrrol-2(1H)-yl)pyrazin-2-yl)-6-(1-methyl-1H-pyrazol-4-yl)pyrazolo[1,5-a]pyridine-3-carbonitrile], the values for the IC50 on human KDR kinase, in the assay on TT cells and against human RET kinase were 10 to 50 nM, at most 10 nM and at most 10 nM, respectively.
As for `COc1ccc(NC(=O)N[C@H]2[C@@H]3CN(c4ccc(-c5cc(OCC(C)(C)O)cn6ncc(C#N)c56)cn4)C[C@@H]32)cn1` [Example 183, 1-((1R,5S,6s)-3-(5-(3-cyano-6-(2-hydroxy-2-methylpropoxy)pyrazolo[1,5-a]pyridin-4-yl)pyridin-2-yl)-3-azabicyclo[3.1.0]hexan-6-yl)-3-(6-methoxypyridin-3-yl)urea], the IC50 is above 100 nM against human KDR kinase, above 100 nM with TT cells and 10 to 50 nM at human RET kinase.
In the case of `CC(C)(O)COc1cc(-c2ccc(N3C[C@@H]4[C@@H](CNS(=O)(=O)c5c(F)cccc5Cl)[C@@H]4C3)nc2)c2c(C#N)cnn2c1` [Example 184, 2-chloro-N-(((1R,5S,6r)-3-(5-(3-cyano-6-(2-hydroxy-2-methylpropoxy)pyrazolo[1,5-a]pyridin-4-yl)pyridin-2-yl)-3-azabicyclo[3.1.0]hexan-6-yl)methyl)-6-fluorobenzenesulfonamide], the IC50 is above 100 nM against human KDR kinase, 50 to 100 nM in the assay on TT cells and 10 to 50 nM against human RET kinase.
For `Cc1cccc(Cl)c1C(=O)NC[C@@H]1[C@H]2CN(c3ccc(-c4cc(-c5cnn(C)c5)cn5ncc(C#N)c45)cn3)C[C@@H]12` [Example 185, 2-chloro-N-(((1R,5S,6s)-3-(5-(3-cyano-6-(1-methyl-1H-pyrazol-4-yl)pyrazolo[1,5-a]pyridin-4-yl)pyridin-2-yl)-3-azabicyclo[3.1.0]hexan-6-yl)methyl)-6-methylbenzamide], the IC50 against human KDR kinase was at most 10 nM; in the assay with TT cells, 10 to 50 nM; against human RET kinase, at most 10 nM.
For the compound `Cn1cc(-c2cc(-c3ccc(N4C[C@@H]5[C@@H](CNC(=O)c6ncccc6C(F)(F)F)[C@@H]5C4)nc3)c3c(C#N)cnn3c2)cn1` [Example 186, N-(((1R,5S,6s)-3-(5-(3-cyano-6-(1-methyl-1H-pyrazol-4-yl)pyrazolo[1,5-a]pyridin-4-yl)pyridin-2-yl)-3-azabicyclo[3.1.0]hexan-6-yl)methyl)-3-(trifluoromethyl)picolinamide], the IC50 at human KDR kinase, with TT cells and at human RET kinase was at most 10 nM throughout.
Consider `CC(C)(O)COc1cc(-c2ccc(N3C[C@@H]4C[C@@](C)(NS(=O)(=O)c5c(F)cccc5Cl)C[C@@H]4C3)nc2)c2c(C#N)cnn2c1` [Example 197, 2-chloro-N-((3aR,5s,6aS)-2-(5-(3-cyano-6-(2-hydroxy-2-methylpropoxy)pyrazolo[1,5-a]pyridin-4-yl)pyridin-2-yl)-5-methyloctahydrocyclopenta[c]pyrrol-5-yl)-6-fluorobenzenesulfonamide], for which the IC50 is 10 to 50 nM at human KDR kinase, 10 to 50 nM in the assay on TT cells and at most 10 nM on human RET kinase.
Take `Cn1ccc(-c2cc(-c3ccc(N4C[C@@H]5C[C@@](C)(NC(=O)c6ncccc6C#N)C[C@@H]5C4)nc3)c3c(C#N)cnn3c2)n1` [Example 198, 3-cyano-N-((3aR,5s,6aS)-2-(5-(3-cyano-6-(1-methyl-1H-pyrazol-3-yl)pyrazolo[1,5-a]pyridin-4-yl)pyridin-2-yl)-5-methyloctahydrocyclopenta[c]pyrrol-5-yl)picolinamide]: the IC50 against human KDR kinase was 50 to 100 nM; with TT cells, 10 to 50 nM; at human RET kinase, 10 to 50 nM.
